Literature values, collected in US20120258914A1, “COACERVATION PROCESS” (Alkermes, Inc., priority 2007, published 2012).

For exendin-4, the secretion of insulin (in the presence of elevated blood glucose concentrations, but not during hypoglycemia) is given as “stimulate secretion of insulin”, the “food intake and body weight” value (in vivo) is given as “affect food intake and body weight” and the gastric emptying (in vivo) is given as “slow gastric emptying”. For the same substance, the glucagon secretion (in vivo) was “suppress glucagon secretion”.
